Laboratory results as given in PubChem BioAssay AID1996.
In brackets after ≈: the same amount, converted by molar mass.

conditions: buffer; pH 7.4; 200.0 µM

Compound | solubility kinetic [µg/mL]
CC(=O)C1=C(O)CCCC1=NCc1nc2ccccc2[nH]1 | > 42.5
CC(=O)c1cccc(N=Cc2c(O)ccc3ccccc23)c1 | 2.3 (≈ 7.95 µM)
CC/C(C)=N/Oc1nc(C)cc(C)n1 | 28.5 (≈ 147 µM)
CCCCn1c(SCC(N)=O)nc2sc3c(c2c1=O)CCC3 | 1.9 (≈ 5.63 µM)
CCC(C(=O)Nc1cccnc1Cl)c1ccccc1 (centres undefined) | 30.2 (≈ 110 µM)
CSc1nc(-c2ccccc2)nc(NC(C)=O)c1C(C)=O | 3.9 (≈ 12.9 µM)
O=C(CCN1C(=O)c2cccc([N+](=O)[O-])c2C1=O)Nc1nccs1 | 49.3 (≈ 142 µM)
CCOC(=O)c1c(C)[nH]c(C(=O)COC(=O)C2CC2)c1C | 7.8 (≈ 26.6 µM)
N#Cc1ccc(Oc2ccc(NC(=O)C3CC=CCC3C(=O)O)cc2)cc1 (centres undefined) | > 54.4
COc1cc(CC(=O)OCC(=O)N2CCN(C(=O)c3ccco3)CC2)cc(OC)c1OC | > 67
CCS(=O)(=O)N1CCC(C(=O)Nc2ccccc2OC)CC1 | 43.3 (≈ 133 µM)
O=C(N/N=C/c1ccccc1O)c1ccncc1 | > 36.2
CCN(CC)CC(O)Cn1c(-c2ccccc2Cl)nc2ccccc21 (centres undefined) | > 53.7
Cc1nc2ccc(-c3nc4ccc(N)cc4[nH]3)cc2[nH]1 | 39.4 (≈ 150 µM)
CN(C(=O)COC(=O)CNC(=O)c1sc2ccccc2c1Cl)C1CCS(=O)(=O)C1 (centres undefined) | > 68.8
COC(=O)CC1C(=O)NCCN1C(=O)c1ccc([N+](=O)[O-])cc1 (centres undefined) | > 48.2
CCOC(=O)C1CCCN(C(=O)COc2ccc(S(=O)(=O)N3CCOCC3)cc2)C1 (centres undefined) | > 66.1
O=C(Nc1ccsc1C(=O)N1CCCC1)c1ccccc1 | < 0.3
COc1ccc(N(Cc2cc3cc(C)ccc3[nH]c2=O)C(C)=O)cc1 | 47 (≈ 140 µM)
CSc1ncccc1C(=O)NCc1ccccc1Cl | 38.1 (≈ 130 µM)

Compound | solubility kinetic [µg/mL]
COC(=O)c1c(C)oc(C)c1S(=O)(=O)N1CCCC1 | 38.3 (≈ 133 µM)
COc1cccc(CN(C)C(=O)CCC(=O)c2cc(Br)ccc2OC)c1 | 18.3 (≈ 43.5 µM)
COc1cc2ccccc2cc1C(=O)N1CCCC1 | > 38.3
CCN(CC)c1c([N+](=O)[O-])c(=O)oc2ccccc12 | > 39.3
Cl.NC(CO)C12CC3CC(CC(C3)C1)C2 (centres undefined) | > 34.8
CN(C)C(=O)Oc1ccc2c(c1)O/C(=C\c1cccc(Cl)c1)C2=O | < 0.7
C/C=C/c1ccc(OCC(=O)NCc2ccccc2OC)c(OC)c1 | 2.9 (≈ 8.49 µM)
O=C(CN1CCCCC1)Nc1nc(-c2ccc(Cl)cc2)cs1 | < 0.2
CCN(CC)S(=O)(=O)c1ccc(N2CCOCC2)c(NC(=O)c2ccc(=O)[nH]c2)c1 | > 65.2
O=C(NCC1CCCO1)c1cc2c(=O)[nH]c3ccccc3c2s1 (centres undefined) | 2.6 (≈ 7.92 µM)
N#Cc1ccc(-c2nc3ccccc3c(=O)n2O)cc1 | > 39.5
O=C(NCCOC(=O)c1ccc(F)cc1)c1ccc(F)cc1 | 10.4 (≈ 34.1 µM)
CCC(=O)NC1CCN(C(=S)NC)CC1 | > 34.4
Cc1ccc(C(O)(CNCc2ccccc2)c2ccccc2)cc1 (centres undefined) | 26.2 (≈ 82.5 µM)
Cc1ccc(Nc2nnc(SCC(=O)NCC3CCCO3)s2)cc1C (centres undefined) | > 56.8
NC(=O)NC(=O)COC(=O)/C=C/c1cccs1 | 10.4 (≈ 40.9 µM)
O=S(=O)(NC1CCCCCCC1)c1ccccc1 | 30 (≈ 112 µM)
CC1CCCN(C(=O)CNC(=O)c2ccco2)C1 (centres undefined) | > 37.5
COc1ccc(-c2ccc(S(=O)(=O)N3CCCC3)cc2)cc1 | 1.1 (≈ 3.47 µM)
Cc1ccnc(SCC(N)=O)n1 | > 27.5

Compound | solubility kinetic [µg/mL]
CC(=O)OCc1ccccc1Sc1ccccc1C(=O)NCc1ccccc1 | 21.1 (≈ 53.9 µM)
O=C(O)c1ccc(NCCc2ccc(Cl)cc2)c([N+](=O)[O-])c1 | 44.6 (≈ 139 µM)
O=C(Cc1nc2ccccc2[nH]1)c1ccc([N+](=O)[O-])cc1 | 37.8 (≈ 134 µM)
Cc1ccccc1N=C1NC(=O)/C(=C/c2cccn2C)S1 | 3.3 (≈ 11.1 µM)
Cn1cccc1/C=C1/C(=O)NC(=O)N(C(C)(C)C)C1=O | 37.1 (≈ 135 µM)
CNCCc1ccccc1 | < 0.3
CC(NC(=O)CCNC(=O)c1ccco1)c1ccccc1 (centres undefined) | > 42.9
Cc1cccc(C(=O)OCC(=O)NC2CCCCCCC2)c1 | 21.6 (≈ 71.2 µM)
O=c1cc(O)c2c(=O)n(Cc3ccccc3)c3ccccc3c2o1 | 32.6 (≈ 102 µM)
COc1ccc(C2=NOC(C(=O)NCc3cccnc3)C2)cc1 (centres undefined) | > 46.7
CC1CN(C(=O)c2ccc(NS(=O)(=O)c3ccc(C(C)(C)C)cc3)cc2)CC(C)O1 (centres undefined) | 48 (≈ 111 µM)
Clc1ccc(N=C2SCCS2)cc1 | 11 (≈ 47.9 µM)
COC(=O)c1ccc2c(c1)C(C)(C)C(/C=C/c1ccc(O)cc1)=[N+]2C.[I-] | 41.6
CCN(C(=O)COC(=O)c1ccc(Cl)c(S(=O)(=O)N2CCCCC2)c1)C1CCS(=O)(=O)C1 (centres undefined) | 56.6 (≈ 112 µM)
Cc1cccc(N2CC(C(=O)O)CC2=O)c1C (centres undefined) | > 35
COCCOc1ccc(C(F)(F)F)cc1NC(=O)COC(=O)c1ccc(N2CCCC2=O)cc1 | 3 (≈ 6.24 µM)
Cc1cccn2c(=O)nc(SCC(=O)NC3CCCCC3)nc12 | > 49.9
Cc1cccc(Oc2nc(-c3ccccn3)nc3ccccc23)c1 | 27.6 (≈ 88.1 µM)
CCCCSCCCNC(=O)Nc1ccc(C)c(C)c1 | 1.1 (≈ 3.74 µM)
